Literature values as cited in patent US7166608B2, “N-aroyl piperazine derivatives as orexin receptor antagonists” (SmithKline Beecham p.l.c., priority 2001, dated 2007).

Legend:
[1] = test system: freely-feeding rats; details: central administration, 4 hour time period
[2] = test system: rat sleep/EEG; details: central administration at the onset of the normal sleep period

Substance: orexin-A: peptide ligand (agonist) of the orexin receptors; human sequence given in the 1st table (EPLPDCCRQKTCSCRLYELLHGAGNHAAGILTLNH; Human orexin A)
- increase in food intake over control rats receiving vehicle [1]: approximately four-fold
- effect on arousal and sleep [2]: dose-related increase in arousal
